Measured values published in PubChem BioAssay AID1745844 (Carcinogenic Potency Database (CPDB), 2022).
The source made the active and inactive calls. No rule for the calls is given here.

Tested on: rodent lifetime carcinogenesis bioassay, tumor incidence TD50
Experiment: chronic cancer bioassays in animals – CPDB, compiled studies (AID 1745844)
Settings: rat, in feed

SMILES: OCC(CO)(CBr)CBr
- TD50 (strain Fischer 344, males, site: kidney, lesion: tubule adenoma, dosed 12 weeks, study length 103 weeks): 970 mg/kg/day
- TD50 (strain Fischer 344, males, site: kidney, lesion: tubule adenoma, dosed 104 weeks, study length 105 weeks): 1550 mg/kg/day
- TD50 (strain Fischer 344, males, site: liver, lesion: hepatocellular adenoma + hepatoblastoma + hepatocellular carcinoma, dosed 12 weeks, study length 103 weeks): 702 mg/kg/day
- TD50 (strain Fischer 344, males, site: liver, lesion: hepatocellular adenoma + hepatoblastoma + hepatocellular carcinoma, dosed 104 weeks, study length 105 weeks): 1840 mg/kg/day
- TD50 (strain Fischer 344, males, site: lung, lesion: alveolar/bronchiolar adenoma + alveolar/bronchiolar carcinoma, dosed 12 weeks, study length 103 weeks): 52.4 mg/kg/day
- TD50 (strain Fischer 344, males, site: lung, lesion: alveolar/bronchiolar adenoma + alveolar/bronchiolar carcinoma, dosed 104 weeks, study length 105 weeks): 729 mg/kg/day
- TD50 (strain Fischer 344, males, site: lung, lesion: alveolar/bronchiolar adenoma, dosed 12 weeks, study length 103 weeks): 73.1 mg/kg/day
- TD50 (strain Fischer 344, males, site: lung, lesion: alveolar/bronchiolar carcinoma, dosed 12 weeks, study length 103 weeks): 327 mg/kg/day
- TD50 (strain Fischer 344, males, site: lung, lesion: alveolar/bronchiolar carcinoma, dosed 104 weeks, study length 105 weeks): 1300 mg/kg/day
- TD50 (strain Fischer 344, males, site: lung, lesion: squamous-cell carcinoma, dosed 12 weeks, study length 103 weeks): 484 mg/kg/day
- TD50 (strain Fischer 344, males, site: mammary gland, lesion: adenoma + fibroadenoma, dosed 104 weeks, study length 105 weeks): 262 mg/kg/day
- TD50 (strain Fischer 344, males, site: mammary gland, lesion: fibroadenoma, dosed 12 weeks, study length 103 weeks): 78.3 mg/kg/day
- TD50 (strain Fischer 344, males, site: mammary gland, lesion: fibroadenoma, dosed 104 weeks, study length 105 weeks): 275 mg/kg/day
- TD50 (strain Fischer 344, males, site: palate + tongue, lesion: squamous-cell carcinoma + squamous-cell papilloma, dosed 12 weeks, study length 103 weeks): 24 mg/kg/day
- TD50 (strain Fischer 344, males, site: palate + tongue, lesion: squamous-cell papilloma, dosed 12 weeks, study length 103 weeks): 24.6 mg/kg/day
- TD50 (strain Fischer 344, males, site: palate + tongue, lesion: squamous-cell papilloma, dosed 104 weeks, study length 105 weeks): 300 mg/kg/day
- TD50 (strain Fischer 344, males, site: palate, lesion: squamous-cell papilloma, dosed 12 weeks, study length 103 weeks): 115 mg/kg/day
- TD50 (strain Fischer 344, males, site: palate, lesion: squamous-cell papilloma, dosed 104 weeks, study length 105 weeks): 808 mg/kg/day
- TD50 (strain Fischer 344, males, site: pancreas, lesion: acinar-cell adenoma, dosed 12 weeks, study length 103 weeks): 193 mg/kg/day
- TD50 (strain Fischer 344, males, site: pancreas, lesion: acinar-cell adenoma, dosed 104 weeks, study length 105 weeks): 516 mg/kg/day
- TD50 (strain Fischer 344, males, site: pancreatic islets, lesion: islet-cell adenoma + islet-cell carcinoma, dosed 104 weeks, study length 105 weeks): 208 mg/kg/day
- TD50 (strain Fischer 344, males, site: pituitary gland, lesion: pars distalis adenoma + pars distalis carcinoma, dosed 104 weeks, study length 105 weeks): 462 mg/kg/day
- TD50 (strain Fischer 344, males, site: pituitary gland, lesion: pars distalis adenoma, dosed 12 weeks, study length 103 weeks): 67.3 mg/kg/day
- TD50 (strain Fischer 344, males, site: pituitary gland, lesion: pars distalis adenoma, dosed 104 weeks, study length 105 weeks): 493 mg/kg/day
- TD50 (strain Fischer 344, males, site: preputial gland, lesion: adenoma + carcinoma, dosed 12 weeks, study length 103 weeks): 39 mg/kg/day
- TD50 (strain Fischer 344, males, site: preputial gland, lesion: adenoma + carcinoma, dosed 104 weeks, study length 105 weeks): 793 mg/kg/day
- TD50 (strain Fischer 344, males, site: preputial gland, lesion: adenoma, dosed 12 weeks, study length 103 weeks): 22.8 mg/kg/day
- TD50 (strain Fischer 344, males, site: preputial gland, lesion: adenoma, dosed 104 weeks, study length 105 weeks): 819 mg/kg/day
- TD50 (strain Fischer 344, males, site: seminal vesicle, lesion: adenoma + carcinoma, dosed 12 weeks, study length 103 weeks): 453 mg/kg/day
- TD50 (strain Fischer 344, males, site: skin, lesion: basal-cell adenoma + basal-cell carcinoma + keratoacanthoma + squamous-cell carcinoma + squamous-cell papilloma + trichoepitheliom, dosed 104 weeks, study length 105 weeks): 166 mg/kg/day
- TD50 (strain Fischer 344, males, site: skin, lesion: basal-cell adenoma + basal-cell carcinoma + trichoepithelioma, dosed 104 weeks, study length 105 weeks): 720 mg/kg/day
- TD50 (strain Fischer 344, males, site: skin, lesion: basal-cell adenoma + keratoacanthoma + squamous-cell carcinoma + squamous-cell papilloma + trichoepithelioma, dosed 12 weeks, study length 103 weeks): 16.9 mg/kg/day
- TD50 (strain Fischer 344, males, site: skin, lesion: basal-cell adenoma + trichoepithelioma, dosed 12 weeks, study length 103 weeks): 64.6 mg/kg/day
- TD50 (strain Fischer 344, males, site: skin, lesion: basal-cell adenoma, dosed 12 weeks, study length 103 weeks): 82.3 mg/kg/day
- TD50 (strain Fischer 344, males, site: skin, lesion: basal-cell adenoma, dosed 104 weeks, study length 105 weeks): 1530 mg/kg/day
- TD50 (strain Fischer 344, males, site: skin, lesion: keratoacanthoma, dosed 12 weeks, study length 103 weeks): 42.5 mg/kg/day
- TD50 (strain Fischer 344, males, site: skin, lesion: keratoacanthoma, dosed 104 weeks, study length 105 weeks): 235 mg/kg/day
- TD50 (strain Fischer 344, males, site: skin, lesion: squamous-cell carcinoma + squamous-cell papilloma, dosed 12 weeks, study length 103 weeks): 21.7 mg/kg/day
- TD50 (strain Fischer 344, males, site: skin, lesion: squamous-cell carcinoma + squamous-cell papilloma, dosed 104 weeks, study length 105 weeks): 1130 mg/kg/day
- TD50 (strain Fischer 344, males, site: skin, lesion: squamous-cell papilloma, dosed 12 weeks, study length 103 weeks): 46.2 mg/kg/day
- TD50 (strain Fischer 344, males, site: skin, lesion: squamous-cell papilloma, dosed 104 weeks, study length 105 weeks): 1130 mg/kg/day
- TD50 (strain Fischer 344, males, site: subcutaneous tissue, lesion: fibroma, dosed 12 weeks, study length 103 weeks): 111 mg/kg/day
- TD50 (strain Fischer 344, males, site: subcutaneous tissue, lesion: fibroma, dosed 104 weeks, study length 105 weeks): 271 mg/kg/day
- TD50 (strain Fischer 344, males, site: subcutaneous tissue, lesion: fibrosarcoma + fibroma + sarcoma, dosed 12 weeks, study length 103 weeks): 87.3 mg/kg/day
- TD50 (strain Fischer 344, males, site: subcutaneous tissue, lesion: fibrosarcoma + fibroma + sarcoma, dosed 104 weeks, study length 105 weeks): 221 mg/kg/day
- TD50 (strain Fischer 344, males, site: subcutaneous tissue, lesion: fibrosarcoma + sarcoma, dosed 12 weeks, study length 103 weeks): 654 mg/kg/day
- TD50 (strain Fischer 344, males, site: subcutaneous tissue, lesion: fibrosarcoma + sarcoma, dosed 104 weeks, study length 105 weeks): 1080 mg/kg/day
- TD50 (strain Fischer 344, males, site: subcutaneous tissue, lesion: sarcoma, dosed 104 weeks, study length 105 weeks): 1550 mg/kg/day
- TD50 (strain Fischer 344, males, site: testis, lesion: interstitial-cell adenoma, bilateral + interstitial-cell adenoma, dosed 12 weeks, study length 103 weeks): 5.94 mg/kg/day
- TD50 (strain Fischer 344, males, site: testis, lesion: interstitial-cell adenoma, bilateral + interstitial-cell adenoma, dosed 104 weeks, study length 105 weeks): 66.5 mg/kg/day
- TD50 (strain Fischer 344, males, site: thyroid gland, lesion: c-cell adenoma + c-cell carcinoma, bilateral + c-cell carcinoma, dosed 104 weeks, study length 105 weeks): 675 mg/kg/day
- TD50 (strain Fischer 344, males, site: thyroid gland, lesion: c-cell carcinoma, bilateral + c-cell carcinoma, dosed 104 weeks, study length 105 weeks): 1920 mg/kg/day
- TD50 (strain Fischer 344, males, site: thyroid gland, lesion: follicular-cell adenoma + follicular-cell carcinoma, dosed 12 weeks, study length 103 weeks): 82.6 mg/kg/day
- TD50 (strain Fischer 344, males, site: thyroid gland, lesion: follicular-cell adenoma + follicular-cell carcinoma, dosed 104 weeks, study length 105 weeks): 629 mg/kg/day
- TD50 (strain Fischer 344, males, site: thyroid gland, lesion: follicular-cell adenoma, dosed 12 weeks, study length 103 weeks): 132 mg/kg/day
- TD50 (strain Fischer 344, males, site: thyroid gland, lesion: follicular-cell carcinoma, dosed 104 weeks, study length 105 weeks): 1110 mg/kg/day
- TD50 (strain Fischer 344, males, site: tongue, lesion: squamous-cell papilloma, dosed 12 weeks, study length 103 weeks): 30.8 mg/kg/day
- TD50 (strain Fischer 344, males, site: tongue, lesion: squamous-cell papilloma, dosed 104 weeks, study length 105 weeks): 500 mg/kg/day
- TD50 (strain Fischer 344, males, site: urinary bladder, lesion: transitional-cell carcinoma + transitional-cell papilloma, dosed 12 weeks, study length 103 weeks): 223 mg/kg/day
- TD50 (strain Fischer 344, males, site: urinary bladder, lesion: transitional-cell carcinoma + transitional-cell papilloma, dosed 104 weeks, study length 105 weeks): 2320 mg/kg/day
- TD50 (strain Sprague-Dawley Spartan, females, site: any site (literature study), lesion: several types, types named in the paper, dosed 104 weeks, study length 104 weeks): 1730 mg/kg/day (inactive)
- carcinogen call (strain Sprague-Dawley Spartan, females, site: liver, lesion: hepatocellular carcinoma, dosed 104 weeks, study length 104 weeks): negative (inactive)
- TD50 (strain Sprague-Dawley Spartan, females, site: liver, lesion: hepatocellular hyperplastic nodule, dosed 104 weeks, study length 104 weeks): 2550 mg/kg/day (inactive)
- carcinogen call (strain Sprague-Dawley Spartan, males, site: any site (literature study), lesion: several types, types named in the paper, dosed 104 weeks, study length 104 weeks): negative (inactive)
- carcinogen call (strain Sprague-Dawley Spartan, males, site: liver, lesion: hepatocellular carcinoma, dosed 104 weeks, study length 104 weeks): negative (inactive)
- carcinogen call (strain Sprague-Dawley Spartan, males, site: liver, lesion: hepatocellular hyperplastic nodule, dosed 104 weeks, study length 104 weeks): negative (inactive)
